Assay results reported in the NIST ThermoML archive (doi:10.1016/j.fluid.2010.09.023).
Numbers after ± are expanded uncertainties.

Conditions: Liquid
[1] = 312.59 K, Closed cell (Static) method

## CCC#N [propanenitrile]
307.78 K, Closed cell (Static) method
  vapor or sublimation pressure: 9.47 ± 2.8 kPa
312.5 K, Closed cell (Static) method
  vapor or sublimation pressure: 11.9 ± 2.8 kPa
312.58 K, Closed cell (Static) method
  vapor or sublimation pressure: 11.9 ± 2.8 kPa
313.15 K, Closed cell (Static) method
  vapor or sublimation pressure: 12.5 ± 2.8 kPa
313.15 K, Ebulliometric method (Recirculating still)
  vapor or sublimation pressure: 12.72 ± 0.29 kPa
322 K, Closed cell (Static) method
  vapor or sublimation pressure: 17.4 ± 2.8 kPa
339.57 K, Ebulliometric method (Recirculating still)
  vapor or sublimation pressure: 36.51 ± 0.3 kPa
353.83 K, Ebulliometric method (Recirculating still)
  vapor or sublimation pressure: 60.04 ± 0.33 kPa
358.33 K, Closed cell (Static) method
  vapor or sublimation pressure: 69.6 ± 2.8 kPa
358.37 K, Ebulliometric method (Recirculating still)
  vapor or sublimation pressure: 69.81 ± 0.36 kPa
364.8 K, Ebulliometric method (Recirculating still)
  vapor or sublimation pressure: 85.5 ± 0.39 kPa
370.9 K, Ebulliometric method (Recirculating still)
  vapor or sublimation pressure: 103.12 ± 0.4 kPa

## CC(C)C [2-methylpropane]
307.79 K, Closed cell (Static) method
  vapor or sublimation pressure: 460.8 ± 3.2 kPa

## CCCC [butane]
322.01 K, Closed cell (Static) method
  vapor or sublimation pressure: 479.5 ± 3.2 kPa

## C=C(C)C [2-methylpropene]
[1]
  vapor or sublimation pressure: 467.1 ± 3.2 kPa

## C=CCC [1-butene]
[1]
  vapor or sublimation pressure: 448.3 ± 3.2 kPa

## CCOC(C)(C)C [2-ethoxy-2-methylpropane]
312.83 K, Ebulliometric method (Recirculating still)
  vapor or sublimation pressure: 30.95 ± 0.33 kPa
312.84 K, Closed cell (Static) method
  vapor or sublimation pressure: 31.9 ± 2.8 kPa
330.44 K, Ebulliometric method (Recirculating still)
  vapor or sublimation pressure: 60.25 ± 0.34 kPa
338.77 K, Ebulliometric method (Recirculating still)
  vapor or sublimation pressure: 80.14 ± 0.38 kPa
343.01 K, Ebulliometric method (Recirculating still)
  vapor or sublimation pressure: 92 ± 0.42 kPa
346.26 K, Ebulliometric method (Recirculating still)
  vapor or sublimation pressure: 102.08 ± 0.43 kPa
358.31 K, Closed cell (Static) method
  vapor or sublimation pressure: 147.9 ± 2.8 kPa
